Experimental data taken from patent US11291205B2, “Microbiocidal picolinamide derivatives” (Syngenta Participations AG, priority 2017, dated 2022).

Assays:
[1] = test system: Mycosphaerella arachidis (Cercospora arachidicola); assay: Mycosphaerella arachidis (Cercospora arachidicola) / liquid culture (early leaf spot); assay type: cell-based; conditions: 96 h, 200 ppm in the formulation, inhibition of growth determined photometrically 4-5 days after application, compared to untreated control, read-out: disease control
Procedure: (§1) Mycosphaerella arachidis (Cercospora arachidicola)/Liquid Culture (Early Leaf Spot) Conidia of the fungus from cryogenic storage are directly mixed into nutrient broth (PDB potato dextrose broth). After placing a (DMSO) solution of test compound into a microtiter plate (96-well format), the nutrient broth containing the fungal spores is added. The test plates are incubated at 24° C. and the inhibition of growth is determined photometrically 4-5 days after application.

[2] = test system: Glomerella lagenarium (Colletotrichum lagenarium); assay: Glomerella lagenarium (Colletotrichum lagenarium) / liquid culture (anthracnose); assay type: cell-based; conditions: Colletotrichum orbiculare, 72 h, 200 ppm in the formulation, inhibition of growth measured photometrically 3 to 4 days after application, compared to untreated control, read-out: disease control
Procedure: as §1, with “Glomerella lagenarium (Colletotrichum lagenarium)/Liquid” for “Mycosphaerella arachidis (Cercospora arachidicola)/Liquid”, “(Anthracnose)” for “(Early Leaf Spot)”, “measured” for “determined”, “3 to 4” for “4-5”

[3] = test system: Monographella nivalis (Microdochium nivale); assay: Monographella nivalis (Microdochium nivale) / liquid culture (foot rot cereals); assay type: cell-based; conditions: 96 h, 200 ppm in the formulation, inhibition of growth determined photometrically 4-5 days after application, compared to untreated control, read-out: disease control
Procedure: as §1, with “Monographella nivalis (Microdochium nivale)/Liquid” for “Mycosphaerella arachidis (Cercospora arachidicola)/Liquid”, “(Foot Rot Cereals)” for “(Early Leaf Spot)”

[4] = test system: Botryotinia fuckeliana (Botrytis cinerea); assay: Botryotinia fuckeliana (Botrytis cinerea) / liquid culture (gray mould); assay type: cell-based; conditions: 72 h, 200 ppm in the formulation, inhibition of growth determined photometrically 3-4 days after application, compared to untreated control, read-out: disease control
Procedure: as §1, with “Botryotinia fuckeliana (Botrytis cinerea)/Liquid” for “Mycosphaerella arachidis (Cercospora arachidicola)/Liquid”, “(Gray Mould)” for “(Early Leaf Spot)”, “(Vogels” for “(PDB potato dextrose”, “3-4” for “4-5”

[5] = test system: Mycosphaerella graminicola (Septoria tritici); assay: Mycosphaerella graminicola (Septoria tritici) / liquid culture (Septoria blotch); assay type: cell-based; conditions: Zymoseptoria tritici, 96 h, 200 ppm in the formulation, inhibition of growth determined photometrically 4 to 5 days after application, compared to untreated control, read-out: disease control
Procedure: as §1, with “graminicola (Septoria tritici)/Liquid” for “arachidis (Cercospora arachidicola)/Liquid”, “(Septoria Blotch)” for “(Early Leaf Spot)”, “4 to 5” for “4-5”

[6] = test system: Blumeria graminis f. Sp. tritici (Erysiphe graminis f. Sp. tritici); assay: Blumeria graminis f. sp. tritici / wheat / leaf disc preventative (powdery mildew on wheat); assay type: in vivo; conditions: 200 ppm in the formulation; wheat leaf segments cv. Kanzler; compared to untreated control; 6-8 days after application
Text: Blumeria graminis f. Sp. tritici (Erysiphe graminis f. Sp. tritici)/Wheat/Leaf Disc Preventative (Powdery Mildew on Wheat) Wheat leaf segments cv. Kanzler are placed on agar in a multiwell plate (24-well format) and sprayed with the test compound formulated with DMSO and Tween20 and diluted in water. The leaf disks are inoculated by shaking powdery mildew infected plants above the test plates 1 day after application.

| SMILES | inhibition of growth at 200 ppm [1] | inhibition of growth at 200 ppm [2] | inhibition of growth at 200 ppm [3] | inhibition of growth at 200 ppm [4] | inhibition of growth at 200 ppm [5] | disease control [6] |
| --- | --- | --- | --- | --- | --- | --- |
| COc1ccnc(C(=O)N[C@@H](C)C(=O)OC2CCC2(c2ccccc2)c2ccccc2)c1O (stereo partly drawn) [I.k.02, (2,2-diphenyl cyclobutyl) (2S)-2-[(3-hydroxy-4-methoxy-pyridine-2-carbonyl)amino]propanoate] | ≥ 80% | ≥ 80% | ≥ 80% | ≥ 80% | ≥ 80% |  |
| COc1ccnc(C(=O)N[C@@H](C)C(=O)OC2CCC2c2ccc(F)cc2)c1O (stereo partly drawn) [I.e.02, [2-(4-fluorophenyl)cyclobutyl] (2S)-2-[(3-hydroxy-4-methoxy-pyridine-2-carbonyl)amino]propanoate] | ≥ 80% | ≥ 80% | ≥ 80% | ≥ 80% | ≥ 80% |  |
| COc1ccnc(C(=O)N[C@@H](C)C(=O)OC2CCC2(c2ccc(Cl)cc2)c2ccc(Cl)cc2)c1O (stereo partly drawn) [I.v.02, [2,2-bis(4-chlorophenyl)cyclobutyl] (2S)-2-[(3-hydroxy-4-methoxy-pyridine-2-carbonyl)amino]propanoate] | ≥ 80% | ≥ 80% | ≥ 80% |  | ≥ 80% |  |
| COc1ccnc(C(=O)N[C@@H](C)C(=O)OC2CCC2(c2ccc(F)cc2)c2ccc(F)cc2)c1OC(C)=O (stereo partly drawn) [I.u.14, [2,2-bis(4-fluorophenyl)cyclobutyl] (2S)-2-[(3-acetoxy-4-methoxy-pyridine-2-carbonyl)amino]propanoate] | ≥ 80% | ≥ 80% | ≥ 80% | ≥ 80% | ≥ 80% |  |
| COc1cccc(C2(c3cccc(OC)c3)CCC2OC(=O)[C@H](C)NC(=O)c2nccc(OC)c2O)c1 (some centres unmarked) [I.t.02] | ≥ 80% | ≥ 80% | ≥ 80% | ≥ 80% | ≥ 80% | at least 80% |
| COc1ccnc(C(=O)N[C@@H](C)C(=O)OC2CCC2c2ccc(Cl)cc2Cl)c1O (stereo partly drawn) [I.i.02, [2-(2,4-dichlorophenyl)cyclobutyl] (2S)-2-[(3-hydroxy-4-methoxy-pyridine-2-carbonyl)amino]propanoate] | ≥ 80% | ≥ 80% | ≥ 80% | ≥ 80% | ≥ 80% |  |
| COc1ccnc(C(=O)N[C@@H](C)C(=O)OC2CCC2c2ccc(F)cc2F)c1O (stereo partly drawn) [I.h.02, [2-(2,4-difluorophenyl)cyclobutyl] (2S)-2-[(3-hydroxy-4-methoxy-pyridine-2-carbonyl)amino]propanoate] | ≥ 80% | ≥ 80% | ≥ 80% | ≥ 80% | ≥ 80% |  |
| COc1ccnc(C(=O)N[C@@H](C)C(=O)OC2CCC2(c2cccc(C)c2)c2cccc(C)c2)c1O (stereo partly drawn) [I.s.02, [2,2-bis(m-tolyl)cyclobutyl] (2S)-2-[(3-hydroxy-4-methoxy-pyridine-2-carbonyl)amino]propanoate] | ≥ 80% | ≥ 80% | ≥ 80% |  | ≥ 80% |  |
| COc1ccnc(C(=O)N[C@@H](C)C(=O)OC2CCC2c2ccc(Cl)cc2)c1O (stereo partly drawn) [I.f.02, [2-(4-chlorophenyl)cyclobutyl] (2S)-2-[(3-hydroxy-4-methoxy-pyridine-2-carbonyl)amino]propanoate] | ≥ 80% | ≥ 80% | ≥ 80% | ≥ 80% | ≥ 80% |  |
| COc1ccnc(C(=O)N[C@@H](C)C(=O)OC2CC2c2ccc(C(C)(C)C)cc2)c1O (stereo partly drawn) [I.ap.01, [2-(4-tert-butylphenyl)cyclopropyl] (2S)-2-[(3-hydroxy-4-methoxy-pyridine-2-carbonyl)amino]propanoate] | ≥ 80% | ≥ 80% | ≥ 80% | ≥ 80% | ≥ 80% |  |
| COc1ccnc(C(=O)N[C@@H](C)C(=O)OC2CCC2(c2ccc(F)cc2)c2ccc(F)cc2)c1O (stereo partly drawn) [I.u.02, [2,2-bis(4-fluorophenyl)cyclobutyl] (2S)-2-[(3-hydroxy-4-methoxy-pyridine-2-carbonyl)amino]propanoate] | ≥ 80% | ≥ 80% | ≥ 80% | ≥ 80% | ≥ 80% |  |
| COc1ccnc(C(=O)N[C@@H](C)C(=O)OC2CCC2(CC(C)C)c2ccc(F)cc2)c1O (stereo partly drawn) [I.at.02, [2-(4-fluorophenyl)-2-isobutyl-cyclobutyl] (2S)-2-[(3-hydroxy-4-methoxy-pyridine-2-carbonyl)amino]propanoate] | ≥ 80% | ≥ 80% | ≥ 80% |  | ≥ 80% |  |
| CCC1(c2ccc(F)cc2)CCC1OC(=O)[C@H](C)NC(=O)c1nccc(OC)c1O (stereo partly drawn) [I.ag.02, [2-ethyl-2-(4-fluorophenyl)cyclo-butyl] (2S)-2-[(3-hydroxy-4-methoxy-pyridine-2-carbonyl)amino]propanoate] | ≥ 80% | ≥ 80% | ≥ 80% |  | ≥ 80% |  |
| CCCc1ccc(C2CC2OC(=O)[C@H](C)NC(=O)c2nccc(OC)c2O)cc1 (stereo partly drawn) [I.aq.01, [2-(4-propylphenyl)cyclopropyl] (2S)-2-[(3-hydroxy-4-methoxy-pyridine-2-carbonyl)amino]propanoate] | ≥ 80% | ≥ 80% | ≥ 80% | ≥ 80% | ≥ 80% |  |
| COc1ccnc(C(=O)N[C@@H](C)C(=O)OC2CCC2(c2ccc(C)cc2)c2ccc(C)cc2)c1O (stereo partly drawn) [I.w.02, [2,2-bis(p-tolyl)cyclobutyl](2S)-2-[(3-hydroxy-4-methoxy-pyridine-2-carbonyl)amino]propanoate] | ≥ 80% | ≥ 80% | ≥ 80% |  | ≥ 80% |  |
| COc1ccnc(C(=O)N[C@@H](C)C(=O)OC2CCC2(Cc2ccccc2)c2ccc(F)cc2)c1O (some centres unmarked) [I.au02] | ≥ 80% | ≥ 80% | ≥ 80% | ≥ 80% | ≥ 80% |  |
| COc1ccnc(C(=O)N[C@@H](C)C(=O)OC2CCC2(C)c2ccc(F)cc2)c1O (stereo partly drawn) [I.ad.02, [2-(4-fluoro phenyl)-2-methyl-cyclobutyl] (2S)-2-[(3-hydroxy-4-methoxy-pyridine-2-carbonyl)amino]propanoate] |  | ≥ 80% | ≥ 80% |  | ≥ 80% |  |
| COc1ccnc(C(=O)N[C@@H](C)C(=O)OC2CCC2(c2ccc(Cl)cc2)C2CC2)c1O (stereo partly drawn) [I.as.02, [2-(4-chlorophenyl)-2-cyclopropyl-cyclobutyl] (2S)-2-[(3-hydroxy-4-methoxy-pyridine-2-carbonyl)amino]propanoate] | ≥ 80% | ≥ 80% | ≥ 80% | ≥ 80% | ≥ 80% |  |
| COc1ccnc(C(=O)N[C@@H](C)C(=O)OC2CCC2(c2ccc(F)cc2)C2CC2)c1O (stereo partly drawn) [I.ar.02, [2-cyclopropyl-2-(4-fluorophenyl)cyclobutyl] (2S)-2-[(3-hydroxy-4-methoxy-pyridine-2-carbonyl)amino]propanoate] | ≥ 80% | ≥ 80% | ≥ 80% | ≥ 80% | ≥ 80% |  |
